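Where inhibition never reached the appropriate level, the endpoint shown equals the highest concentration tested. Otherwise, values were interpolated linearly from a five-concentration, 48-hour dose response in 96-well plates. TGI marks complete inhibition of growth.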 Bounds are passed on as bounds.

In the first test the test system is SNB-19 CNS. Put plainly: NCI tumour cell line growth inhibition, 48 h.
`O=c1c2cc3c(cc2[nH]c2ncccc12)OCO3` showed a TGI of more than 10 µM.

Turning to `O=C(CNc1ccccc1Cl)Nn1c(-c2ccccc2)nc2ccccc2c1=O`, the TGI was more than 10 µM.

Turning to `Cc1csc(-c2cn(C)c3c2C(=O)C(N)=CC3=O)n1`, the TGI is more than 100 µM.

`Cc1cc2[nH]c3[nH]c(=O)[nH]c(=O)c3c2cc1C` gave a TGI of more than 100 µM.

The compound `Nc1c(-c2cccc3ccccc23)c2ccc([N+](=O)[O-])cc2c(=O)n1-c1nc2ccccc2s1` came in with a TGI of more than 49.4 µM.

As for `CC1CC[C@@]2(OC1)OC1C[C@H]3[C@@H]4CC[C@H]5CC(OC6OC(CO)C(OC7OC(CO)C(O)C(O)C7OC7OC(CO)C(O)C(O)C7O)C(O)C6O)CCC5(C)[C@H]4CCC3(C)C1[C@@H]2C` (stereo partly drawn), the TGI worked out at 10.3 µM.

Compound `CC1(C)N=C(C(N)=O)c2ncn(CCCO)c2N1` registered a TGI of more than 100 µM.

On to `CC(C)COP(=O)(OCC(C)C)C(NS(=O)(=O)c1ccccc1)(C(F)(F)F)C(F)(F)F`, for which the TGI came to 54.1 µM.

As to `CN(C)CCCN1C(=S)N(CCCN(C)C)c2c3cc(O)ccc3nc3c([N+](=O)[O-])ccc1c23`, the TGI was determined as 13.9 µM.

`CC(O)C1CC1(CO)CNc1cc(Cl)nc(N)n1` (stereo not drawn) returned a TGI of more than 100 µM.

`CN(C)Cc1cc(C(=O)/C=C/c2ccc(O)cc2)cc(CN(C)C)c1O` returned a TGI of more than 100 µM.

The next test concerns HOP-92 NSCLC. Put plainly: NCI tumour cell line growth inhibition, 48 h.
The compound `O=c1cc(N=P(c2ccccc2)(c2ccccc2)c2ccccc2)n(-c2ccccc2)c(=O)n1-c1ccccc1` displayed a TGI of 47.5 µM.

In turn, `COc1ccc(C2(CC(C)O)SCCCS2)cc1` (stereo not drawn) showed a TGI of more than 100 µM.

In the case of `Clc1ccc(-c2nn3c(-c4ccncc4)nnc3s2)cc1`, the TGI was more than 100 µM.

Compound `COc1ccc(C(OCC2OC(n3cc(C)c(=O)[nH]c3=O)CC2n2cc(Cn3cc(F)c(=O)[nH]c3=O)nn2)(c2ccccc2)c2ccccc2)cc1` (stereo not drawn) showed a TGI of 19.5 µM.

Take `C=CCn1c(=O)ccn(COCCO)c1=O`: the TGI was more than 100 µM.

Compound `Oc1ccccc1/C=N/c1nc2cc3sc(/N=C/c4ccccc4O)nc3cc2s1` had a TGI of more than 100 µM.

`CCN(CC)CCOc1ccc(N2C(=O)c3cc(OC)c(OC)cc3C2=O)cc1`: the TGI was more than 100 µM.

Consider `C(=N\NC1=NCCCN1)/c1ccc2ccccc2c1`, for which the TGI turned out to be 25.1 µM.

Regarding `CCOC(=N)n1c(=O)n(C2=NCCN2)c2ccccc21`, the TGI is more than 100 µM.

`O=C(NCCN1CCOCC1)c1ccc2cc(C(=O)N3CC(CCl)c4ccc([N+](=O)[O-])cc43)[nH]c2c1` (stereo not drawn) yielded a TGI of 38.4 µM.

`O=c1c2cc3c(cc2[nH]c2ncccc12)OCO3` had a TGI of more than 10 µM.

As to `O=C(CNc1ccccc1Cl)Nn1c(-c2ccccc2)nc2ccccc2c1=O`, the TGI was determined as 29.4 µM.

Consider `Cc1csc(-c2cn(C)c3c2C(=O)C(N)=CC3=O)n1`, for which the TGI was more than 100 µM.

Take `Cc1cc2[nH]c3[nH]c(=O)[nH]c(=O)c3c2cc1C`: the TGI was more than 100 µM.

As to `Nc1c(-c2cccc3ccccc23)c2ccc([N+](=O)[O-])cc2c(=O)n1-c1nc2ccccc2s1`, the TGI is more than 55.5 µM.

Compound `CC1CC[C@@]2(OC1)OC1C[C@H]3[C@@H]4CC[C@H]5CC(OC6OC(CO)C(OC7OC(CO)C(O)C(O)C7OC7OC(CO)C(O)C(O)C7O)C(O)C6O)CCC5(C)[C@H]4CCC3(C)C1[C@@H]2C` (stereo partly drawn) came in with a TGI of 11.8 µM.

In turn, `CC1(C)N=C(C(N)=O)c2ncn(CCCO)c2N1` displayed a TGI of more than 100 µM.

Consider `CC(C)COP(=O)(OCC(C)C)C(NS(=O)(=O)c1ccccc1)(C(F)(F)F)C(F)(F)F`, for which the TGI worked out at 7.64 µM.

Compound `CN(C)CCCN1C(=S)N(CCCN(C)C)c2c3cc(O)ccc3nc3c([N+](=O)[O-])ccc1c23` came in with a TGI of 16.1 µM.

Turning to `CC(O)C1CC1(CO)CNc1cc(Cl)nc(N)n1` (stereo not drawn), the TGI was more than 100 µM.

On to `CN(C)Cc1cc(C(=O)/C=C/c2ccc(O)cc2)cc(CN(C)C)c1O`, for which the TGI was more than 100 µM.

In the next test the test system is UACC-257 melanoma. Briefly: NCI tumour cell line growth inhibition, 48 h.
`O=c1cc(N=P(c2ccccc2)(c2ccccc2)c2ccccc2)n(-c2ccccc2)c(=O)n1-c1ccccc1` displayed a TGI of more than 100 µM.

The compound `COc1ccc(C2(CC(C)O)SCCCS2)cc1` (stereo not drawn) came in with a TGI of more than 100 µM.

For the compound `Clc1ccc(-c2nn3c(-c4ccncc4)nnc3s2)cc1`, the TGI was more than 100 µM.

For the compound `COc1ccc(C(OCC2OC(n3cc(C)c(=O)[nH]c3=O)CC2n2cc(Cn3cc(F)c(=O)[nH]c3=O)nn2)(c2ccccc2)c2ccccc2)cc1` (stereo not drawn), the TGI worked out at 28 µM.

With `C=CCn1c(=O)ccn(COCCO)c1=O`, the TGI is more than 100 µM.

Consider `Oc1ccccc1/C=N/c1nc2cc3sc(/N=C/c4ccccc4O)nc3cc2s1`, for which the TGI is more than 100 µM.

In turn, `CCN(CC)CCOc1ccc(N2C(=O)c3cc(OC)c(OC)cc3C2=O)cc1` gave a TGI of more than 100 µM.

For the compound `C(=N\NC1=NCCCN1)/c1ccc2ccccc2c1`, the TGI is 42.5 µM.

For `CCOC(=N)n1c(=O)n(C2=NCCN2)c2ccccc21`, the TGI is more than 100 µM.

On to `O=C(NCCN1CCOCC1)c1ccc2cc(C(=O)N3CC(CCl)c4ccc([N+](=O)[O-])cc43)[nH]c2c1` (stereo not drawn), for which the TGI was 86.8 µM.

The compound `O=c1c2cc3c(cc2[nH]c2ncccc12)OCO3` had a TGI of more than 10 µM.

The compound `O=C(CNc1ccccc1Cl)Nn1c(-c2ccccc2)nc2ccccc2c1=O` gave a TGI of more than 100 µM.

In turn, `Cc1csc(-c2cn(C)c3c2C(=O)C(N)=CC3=O)n1` yielded a TGI of 32.6 µM.

Compound `Cc1cc2[nH]c3[nH]c(=O)[nH]c(=O)c3c2cc1C` yielded a TGI of more than 100 µM.

In the case of `Nc1c(-c2cccc3ccccc23)c2ccc([N+](=O)[O-])cc2c(=O)n1-c1nc2ccccc2s1`, the TGI was more than 80.8 µM.

`CC1CC[C@@]2(OC1)OC1C[C@H]3[C@@H]4CC[C@H]5CC(OC6OC(CO)C(OC7OC(CO)C(O)C(O)C7OC7OC(CO)C(O)C(O)C7O)C(O)C6O)CCC5(C)[C@H]4CCC3(C)C1[C@@H]2C` (stereo partly drawn) showed a TGI of 11.6 µM.

`CC1(C)N=C(C(N)=O)c2ncn(CCCO)c2N1` showed a TGI of more than 100 µM.

As for `CC(C)COP(=O)(OCC(C)C)C(NS(=O)(=O)c1ccccc1)(C(F)(F)F)C(F)(F)F`, the TGI turned out to be 17.5 µM.

The compound `CN(C)CCCN1C(=S)N(CCCN(C)C)c2c3cc(O)ccc3nc3c([N+](=O)[O-])ccc1c23` had a TGI of 21.2 µM.

`CC(O)C1CC1(CO)CNc1cc(Cl)nc(N)n1` (stereo not drawn): the TGI was more than 100 µM.

In turn, `CN(C)Cc1cc(C(=O)/C=C/c2ccc(O)cc2)cc(CN(C)C)c1O` registered a TGI of more than 100 µM.

For the origin of these results see PubChem BioAssay (NCI).
